ChEMBL document CHEMBL5346978, “Exploration of Tetrahydroisoquinoline- and Benzo[c]azepine-Based Sphingosine 1-Phosphate Receptor 1 Agonists for the Treatment of Multiple Sclerosis” (J Med Chem, 2023)
Each block holds one molecule with its values, some of them ahead of it. Activity calls are given as the source filed them. No cut-off for these calls is given here.

Tests used:
[1] = Cardiotoxicity in human iPSC-derived cardiomyocyte assessed as effect on intracellular cardiomyocyte contraction at 20 uM measured for 2 mins by FLIPR analysis; format: toxicity, cell-based; conditions: cardiac muscle cell
Mus musculus [2] = test: In vivo agonist activity at S1P1 in po dosed mouse assessed as reduction in peripheral lymphocyte count at 1 to 10 mg/kg, po measured after 24 hrs; format: functional, organism-based; conditions: dose 1-10 mg/kg
[3] = biological target: T1, Sphingosine 1-phosphate receptor 1 (Homo sapiens, UniProt P21453); test: Agonist activity at S1P1 (unknown origin) expressed in PathHunter CHO-K1 EDG1 beta-arrestin cells assessed as beta-arrestin2 recruitment incubated for 90 mins by chemiluminescence based assay; format: functional, cell-based
T1 sequence (P21453 whole entry): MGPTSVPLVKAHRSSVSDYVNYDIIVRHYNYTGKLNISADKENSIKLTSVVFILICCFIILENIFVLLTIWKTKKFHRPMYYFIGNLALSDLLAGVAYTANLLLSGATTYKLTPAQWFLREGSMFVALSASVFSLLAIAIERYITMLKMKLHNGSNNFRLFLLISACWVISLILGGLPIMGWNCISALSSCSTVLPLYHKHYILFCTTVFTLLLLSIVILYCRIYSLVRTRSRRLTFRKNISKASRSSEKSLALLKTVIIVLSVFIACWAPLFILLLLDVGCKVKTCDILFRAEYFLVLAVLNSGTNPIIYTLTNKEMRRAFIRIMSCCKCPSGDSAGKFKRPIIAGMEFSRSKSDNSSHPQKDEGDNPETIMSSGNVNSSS

[4] = Cmax in ICR mouse at 10 mg/kg, po measured at 0.25 to 12 hrs by LC-MS/MS analysis; format: ADME, organism-based; parameters: time upper 12 hrs, dose 10 mg/kg, time lower 0.25 hrs, route po; conditions: in vivo
[5] = Half life in ICR mouse at 1 mg/kg, iv measured at 0.25 to 12 hrs by LC-MS/MS analysis; format: ADME, organism-based; conditions: in vivo, time 0.25-12 hrs
[6] = biological target: T2, Sphingosine 1-phosphate receptor 4 (Homo sapiens, UniProt O95977); test: Agonist activity at S1P4 (unknown origin) expressed in PathHunter CHO-K1 EDG1 beta-arrestin cells assessed as beta-arrestin recruitment; format: functional, cell-based
T2 sequence (O95977 whole entry): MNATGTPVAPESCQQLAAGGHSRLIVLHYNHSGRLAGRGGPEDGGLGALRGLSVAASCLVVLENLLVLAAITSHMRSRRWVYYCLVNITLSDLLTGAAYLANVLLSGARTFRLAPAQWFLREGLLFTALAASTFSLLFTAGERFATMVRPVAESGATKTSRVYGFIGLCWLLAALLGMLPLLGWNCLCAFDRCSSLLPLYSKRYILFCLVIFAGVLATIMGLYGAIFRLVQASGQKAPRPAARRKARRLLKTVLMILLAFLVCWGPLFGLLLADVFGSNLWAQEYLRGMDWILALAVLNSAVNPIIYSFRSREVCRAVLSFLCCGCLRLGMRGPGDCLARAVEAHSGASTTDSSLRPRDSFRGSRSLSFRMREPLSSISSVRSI

[7] = biological target: T1, Sphingosine 1-phosphate receptor 1; test: Agonist activity at S1P1 (unknown origin) expressed in PathHunter CHO-K1 EDG1 beta-arrestin cells assessed as beta-arrestin2 recruitment at 1 uM incubated for 90 mins by chemiluminescence based assay relative to control; format: functional, cell-based; conditions: filed as agonist
Mus musculus [8] = test: Protection against MOG35-55/CFA-induced experimental autoimmune encephalomyelitis C57BL/6 mouse model assessed as reduction disease progression at 10 mg/kg, po administered once a day for 23 days; format: functional, organism-based; conditions: time 23.0 day
[9] = Observed MRT (infinitive) in ICR mouse at 10 mg/kg, po measured at 0.25 to 12 hrs by LC-MS/MS analysis; format: ADME, organism-based; conditions: in vivo, time 0.25-12 hrs
[10] = Oral bioavailability in ICR mouse at 10 mg/kg measured at 0.25 to 12 hrs by LC-MS/MS analysis; format: ADME, organism-based; conditions: in vivo, time 0.25-12 hrs
[11] = Tmax in ICR mouse at 10 mg/kg, po measured at 0.25 to 12 hrs by LC-MS/MS analysis; format: ADME, organism-based; conditions: in vivo, time 0.25-12 hrs
[12] = Cardiotoxicity in human iPSC-derived cardiomyocyte assessed as effect on intracellular cardiomyocyte contraction at 10 uM measured for 2 mins by FLIPR analysis; format: toxicity, cell-based; conditions: cardiac muscle cell
[13] = biological target: Sphingosine 1-phosphate receptor 5 (Homo sapiens, UniProt Q9H228); test: Agonist activity at S1P5 (unknown origin) expressed in CHO cells assessed as Ca2+ activation; format: functional, cell-based
Sphingosine 1-phosphate receptor 5, sequence (Q9H228 whole entry): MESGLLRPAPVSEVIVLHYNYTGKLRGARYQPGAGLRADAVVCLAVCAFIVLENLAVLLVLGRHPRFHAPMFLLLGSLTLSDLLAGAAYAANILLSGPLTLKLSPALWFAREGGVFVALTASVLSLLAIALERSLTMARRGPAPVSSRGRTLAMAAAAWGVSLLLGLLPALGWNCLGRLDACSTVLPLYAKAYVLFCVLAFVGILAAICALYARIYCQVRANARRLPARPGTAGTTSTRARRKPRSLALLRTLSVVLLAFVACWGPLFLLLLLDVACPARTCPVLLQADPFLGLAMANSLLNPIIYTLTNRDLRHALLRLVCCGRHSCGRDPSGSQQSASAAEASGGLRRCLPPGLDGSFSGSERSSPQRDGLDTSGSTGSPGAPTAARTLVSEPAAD

[14] = Microsomal stability in rat liver microsomes assessed as parent compound remaining preincubated for 5 mins followed by NADPH addition measured after 60 mins by LC-MS/MS analysis; format: ADME, Microsome; conditions: time 65 min, read-out: Stability
Mus musculus [15] = test: In vivo agonist activity at S1P1 in mouse assessed as reduction in peripheral lymphocyte count at 1 to 3 mg/kg, po measured at 3 hrs; format: functional, organism-based; conditions: dose 1-3 mg/kg
[16] = Toxicity in C57BL/6 mouse assessed as body weight loss at 10 mg/kg, po administered once a day for 23 days; format: organism-based; conditions: in vivo, 552 h, time 23 day
[17] = Observed MRT (infinitive) in ICR mouse at 1 mg/kg, iv measured at 0.25 to 12 hrs by LC-MS/MS analysis; format: ADME, organism-based; conditions: in vivo, time 0.25-12 hrs
[18] = biological target: T1, Sphingosine 1-phosphate receptor 1; test: Agonist activity at S1P1 (unknown origin) expressed in human HEK293/Galpha15 cells assessed as Ca2+ activation measured for 2 hrs by FLIPR analysis; format: functional, cell-based
[19] = AUClast in ICR mouse at 10 mg/kg, po measured at 0.25 to 12 hrs by LC-MS/MS analysis; format: ADME, organism-based; parameters: time 0.25-12 hrs, dose 10 mg/kg, route po; conditions: in vivo
[20] = biological target: T1, Sphingosine 1-phosphate receptor 1; test: Agonist activity at S1P1 (unknown origin) expressed in human HEK293/Galpha15 cells assessed as Ca2+ activation at 1 uM measured for 2 hrs by FLIPR analysis relative to control; format: functional, cell-based; conditions: filed as agonist
[21] = biological target: Sphingosine 1-phosphate receptor 2 (Homo sapiens, UniProt O95136); test: Agonist activity at S1P2 (unknown origin) expressed in PathHunter CHO-K1 EDG1 beta-arrestin cells assessed as beta-arrestin recruitment; format: functional, cell-based
Sphingosine 1-phosphate receptor 2, sequence (O95136 whole entry): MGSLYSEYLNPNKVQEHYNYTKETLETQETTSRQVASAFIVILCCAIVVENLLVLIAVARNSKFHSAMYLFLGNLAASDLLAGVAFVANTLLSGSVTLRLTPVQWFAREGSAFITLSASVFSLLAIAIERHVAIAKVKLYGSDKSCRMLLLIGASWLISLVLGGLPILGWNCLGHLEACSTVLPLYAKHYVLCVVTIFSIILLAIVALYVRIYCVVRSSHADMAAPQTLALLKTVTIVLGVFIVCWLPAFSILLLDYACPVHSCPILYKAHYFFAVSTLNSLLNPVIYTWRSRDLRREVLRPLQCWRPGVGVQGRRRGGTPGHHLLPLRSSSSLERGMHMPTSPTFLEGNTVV

[22] = biological target: Sphingosine 1-phosphate receptor 3 (Homo sapiens, UniProt Q99500); test: Agonist activity at S1P3 (unknown origin) expressed in PathHunter CHO-K1 EDG1 beta-arrestin cells assessed as beta-arrestin recruitment; format: functional, cell-based
Sphingosine 1-phosphate receptor 3, sequence (Q99500 whole entry): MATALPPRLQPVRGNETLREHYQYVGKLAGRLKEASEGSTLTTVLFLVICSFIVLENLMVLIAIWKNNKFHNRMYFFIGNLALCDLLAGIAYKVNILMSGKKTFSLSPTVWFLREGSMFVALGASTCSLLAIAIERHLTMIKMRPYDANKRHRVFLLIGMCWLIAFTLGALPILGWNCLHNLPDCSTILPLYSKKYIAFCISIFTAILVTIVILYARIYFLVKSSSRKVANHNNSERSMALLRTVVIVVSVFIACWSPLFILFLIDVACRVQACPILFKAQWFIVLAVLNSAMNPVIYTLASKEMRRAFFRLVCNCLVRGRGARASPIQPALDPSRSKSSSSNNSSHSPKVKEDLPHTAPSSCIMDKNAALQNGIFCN

CYP3A4 = CYP3A4 (Homo sapiens, UniProt P08684); test: Inhibition of CYP3A4 in human liver microsomes using midazolam as substrate assessed as residual activity at 10 uM preincubated for 5 mins followed by substrate addition and measured after 15 mins in presence of NADPH by LC-MS/MS analysis; format: ADME, Microsome; conditions: probe midazolam, time 20 min, read-out: Activity
CYP3A4, sequence (P08684 whole entry): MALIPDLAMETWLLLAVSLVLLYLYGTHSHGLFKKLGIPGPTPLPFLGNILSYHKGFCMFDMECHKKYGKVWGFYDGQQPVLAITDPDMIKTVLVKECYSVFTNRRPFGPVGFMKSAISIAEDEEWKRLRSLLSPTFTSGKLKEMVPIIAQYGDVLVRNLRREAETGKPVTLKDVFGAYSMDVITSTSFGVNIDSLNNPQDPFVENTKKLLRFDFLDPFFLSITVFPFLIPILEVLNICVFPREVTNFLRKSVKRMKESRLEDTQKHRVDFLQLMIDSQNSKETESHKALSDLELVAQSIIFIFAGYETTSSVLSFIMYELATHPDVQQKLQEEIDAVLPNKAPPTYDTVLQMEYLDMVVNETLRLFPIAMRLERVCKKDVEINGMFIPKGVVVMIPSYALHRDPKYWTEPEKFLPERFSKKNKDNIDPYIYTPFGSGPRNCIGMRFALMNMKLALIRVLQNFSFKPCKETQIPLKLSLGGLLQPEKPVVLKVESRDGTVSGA

[23] = AUClast in ICR mouse at 1 mg/kg, iv measured at 0.25 to 12 hrs by LC-MS/MS analysis; format: ADME, organism-based; parameters: time lower 0.25 hrs, dose 1 mg/kg, time upper 12 hrs, route iv; conditions: in vivo
[24] = Microsomal stability in mouse liver microsomes assessed as parent compound remaining preincubated for 5 mins followed by NADPH addition measured after 60 mins by LC-MS/MS analysis; format: ADME, Microsome; conditions: time 65 min, read-out: Stability
Mus musculus [25] = test: In vivo agonist activity at S1P1 in po dosed mouse assessed as reduction in peripheral lymphocyte count measured at 6 hrs; format: functional, organism-based; conditions: dose 1-10 mg/kg
[26] = Observed clearance in ICR mouse at 1 mg/kg, iv measured at 0.25 to 12 hrs by LC-MS/MS analysis; format: ADME, organism-based; conditions: in vivo, time 0.25-12 hrs
Mus musculus [27] = test: In vivo agonist activity at S1P1 in mouse assessed as reduction in peripheral lymphocyte count at 10 mg/kg, po measured at 3 hrs; format: functional, organism-based
[28] = Half life in ICR mouse at 10 mg/kg, po measured at 0.25 to 12 hrs by LC-MS/MS analysis; format: ADME, organism-based; conditions: in vivo, time 0.25-12 hrs
CYP2C9 = CYP2C9 (Homo sapiens, UniProt P11712); test: Inhibition of CYP2C9 in human liver microsomes using diclofenac as substrate assessed as residual activity at 10 uM preincubated for 5 mins followed by substrate addition and measured after 15 mins in presence of NADPH by LC-MS/MS analysis; format: ADME, Microsome; conditions: probe diclofenac, time 20 min, read-out: Activity
CYP2C9, sequence (P11712 whole entry): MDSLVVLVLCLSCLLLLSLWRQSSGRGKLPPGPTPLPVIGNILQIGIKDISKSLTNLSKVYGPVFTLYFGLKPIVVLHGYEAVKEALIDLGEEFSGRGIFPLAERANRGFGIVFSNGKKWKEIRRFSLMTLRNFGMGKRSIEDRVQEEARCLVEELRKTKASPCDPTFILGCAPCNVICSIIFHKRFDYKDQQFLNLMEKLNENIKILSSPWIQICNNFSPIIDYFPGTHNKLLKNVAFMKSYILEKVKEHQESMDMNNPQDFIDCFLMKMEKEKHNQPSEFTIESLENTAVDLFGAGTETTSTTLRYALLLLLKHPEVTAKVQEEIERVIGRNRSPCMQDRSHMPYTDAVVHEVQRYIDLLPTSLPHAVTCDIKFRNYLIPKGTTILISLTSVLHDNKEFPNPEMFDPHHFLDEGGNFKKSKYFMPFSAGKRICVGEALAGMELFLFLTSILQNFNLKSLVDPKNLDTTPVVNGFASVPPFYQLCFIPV

Mus musculus [29] = test: In vivo agonist activity at S1P1 in mouse assessed as reduction in peripheral lymphocyte count at 10 mg/kg, po measured at 6 hrs; format: functional, organism-based
CYP2D6 = CYP2D6 (Homo sapiens, UniProt P10635); test: Inhibition of CYP2D6 in human liver microsomes using dextromethorphan as substrate assessed as residual activity at 10 uM preincubated for 5 mins followed by substrate addition and measured after 15 mins in presence of NADPH by LC-MS/MS analysis; format: ADME, Microsome; conditions: probe dextromethorphan, time 20 min, read-out: Activity
CYP2D6, sequence (P10635 whole entry): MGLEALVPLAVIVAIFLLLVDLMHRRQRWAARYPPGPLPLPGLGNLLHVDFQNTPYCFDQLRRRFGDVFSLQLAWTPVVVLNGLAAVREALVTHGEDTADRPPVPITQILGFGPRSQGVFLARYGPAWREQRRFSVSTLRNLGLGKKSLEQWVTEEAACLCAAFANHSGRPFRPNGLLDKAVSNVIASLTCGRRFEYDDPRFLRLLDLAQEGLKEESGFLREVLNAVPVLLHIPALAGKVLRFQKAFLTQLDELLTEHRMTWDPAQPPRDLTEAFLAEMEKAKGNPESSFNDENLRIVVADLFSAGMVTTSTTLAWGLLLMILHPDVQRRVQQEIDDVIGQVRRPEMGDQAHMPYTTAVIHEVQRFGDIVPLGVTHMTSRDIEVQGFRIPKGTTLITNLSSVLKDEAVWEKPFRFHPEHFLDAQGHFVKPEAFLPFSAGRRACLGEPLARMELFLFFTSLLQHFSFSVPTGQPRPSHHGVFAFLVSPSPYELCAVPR

[30] = biological target: T2, Sphingosine 1-phosphate receptor 4; test: Agonist activity at S1P4 (unknown origin) expressed in CHO cells assessed as Ca2+ activation; format: functional, cell-based
[31] = Observed volume of distribution at steady state in ICR mouse at 1 mg/kg, iv measured at 0.25 to 12 hrs by LC-MS/MS analysis; format: ADME, organism-based; conditions: in vivo, time 0.25-12 hrs, read-out: Vdss
CYP1A2 = biological target: T3, CYP1A2 (Homo sapiens, UniProt P05177); test: Inhibition of CYP1A2 in human liver microsomes using phenacetin as substrate assessed as residual activity at 10 uM preincubated for 5 mins followed by substrate addition and measured after 15 mins in presence of NADPH by LC-MS/MS analysis; format: ADME, Microsome; conditions: probe phenacetin, time 20 min, read-out: Activity
T3 sequence (P05177 whole entry): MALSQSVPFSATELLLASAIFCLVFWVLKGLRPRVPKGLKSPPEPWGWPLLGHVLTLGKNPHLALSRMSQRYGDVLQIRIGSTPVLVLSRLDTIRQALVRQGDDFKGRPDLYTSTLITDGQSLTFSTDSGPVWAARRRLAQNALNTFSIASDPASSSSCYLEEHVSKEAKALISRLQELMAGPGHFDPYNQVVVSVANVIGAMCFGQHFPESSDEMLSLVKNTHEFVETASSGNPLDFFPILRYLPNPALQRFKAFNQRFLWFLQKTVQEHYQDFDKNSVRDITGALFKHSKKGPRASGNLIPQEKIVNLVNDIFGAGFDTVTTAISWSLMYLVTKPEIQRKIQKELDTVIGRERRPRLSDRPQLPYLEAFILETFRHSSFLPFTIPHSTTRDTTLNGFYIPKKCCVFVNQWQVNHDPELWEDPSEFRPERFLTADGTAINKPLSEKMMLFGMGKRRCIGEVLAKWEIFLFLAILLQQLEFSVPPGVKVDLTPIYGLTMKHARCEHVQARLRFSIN

[32] = Microsomal stability in human liver microsomes assessed as parent compound remaining preincubated for 5 mins followed by NADPH addition measured after 60 mins by LC-MS/MS analysis; format: ADME, Microsome; conditions: time 65 min, read-out: Stability

SMILES: CC(C)NCC(O)c1ccc(NS(C)(=O)=O)cc1 (stereo not given) [SOTALOL]
Activity [1]: Non-Toxic

EC50 [3]: 16 nM
Cmax [4]: 1130 ng/mL
half-life [5]: 0.6 h
EC50 [6]: 17700 nM
Activity [7]: 81%
MRT inf [9]: 2.5 h
bioavailability [10]: 33%
Tmax [11]: 5 h
EC50 [13]: 110 nM
remaining at 1 h [14]: 62.2%
MRT inf [17]: 0.4 h
EC50 [18]: 21 nM
AUC(0-t) [19]: 1960 ng·h/mL
Activity [20]: 113%
EC50 [21]: > 100000 nM
EC50 [22]: > 100000 nM
activity at 0.25 h, 10 µM (CYP3A4): 96.4%
AUC(0-t) [23]: 593 ng·h/mL
remaining at 1 h [24]: 67.1%
clearance [26]: 29 mL/min/kg
half-life [28]: 1.8 h
activity at 0.25 h, 10 µM (CYP2C9): 96.2%
activity at 0.25 h, 10 µM (CYP2D6): 94.8%
EC50 [30]: 33000 nM
Vd [31]: 0.6 L/kg
SMILES: CC(C)Oc1ccc(COc2ccc3c(c2)CCCN(S(=O)(=O)CCC(=O)O)C3)cc1C#N
Activity (Mus musculus [2]): Active
Activity (Mus musculus [8]): Active
Activity [12]: Non-Toxic
Activity (Mus musculus [15]): Active
Activity [16]: Non-Toxic
Activity (Mus musculus [25]): Dose-Dependent Effect
Activity (Mus musculus [27]): Active
Activity (Mus musculus [29]): Active

activity at 0.25 h, 10 µM (CYP1A2): 100%
EC50 [3]: 94.7 nM
Activity [7]: 81%
remaining at 1 h [14]: 113%
EC50 [18]: 502 nM
Activity [20]: 69%
remaining at 1 h [32]: 16.2%
activity at 0.25 h, 10 µM (CYP3A4): 82.4%
remaining at 1 h [24]: 8.7%
activity at 0.25 h, 10 µM (CYP2C9): 67.7%
activity at 0.25 h, 10 µM (CYP2D6): 89.4%
SMILES: CC(C)Oc1ccc(COc2ccc3c(c2)CCCN(S(=O)(=O)CCCO)C3)cc1C#N
